Patent US12077503B2, “Substituted cyclic amides and their use as herbicides” (FMC CORPORATION, priority 2015, dated 2024)

How the values were obtained:
Assay type in all cases: in vivo
[1] = test system: ryegrass, Italian (Italian ryegrass, Lolium multiflorum); test: Test A postemergence
Outline: (§1)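 Preemergence soil spray on seeded pots or post-emergence spray on 1–2 leaf plants, in loam–sand blend. Greenhouse ~10 d. Visual rating 0–100 against untreated plants.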

[2] = test system: Galium (catchweed bedstraw, Galium aparine); test: Test A postemergence
Outline: as §1

[3] = test system: wheat (Triticum aestivum); test: Test A postemergence
Outline: as §1

[4] = test system: giant foxtail (Setaria faberii); test: Test A postemergence
Outline: as §1

[5] = test system: Kochia (Kochia scoparia); test: Test A postemergence
Outline: as §1

[6] = test system: blackgrass (Alopecurus myosuroides); test: Test A postemergence
Outline: as §1

[7] = test system: corn (Zea mays); test: Test A postemergence
Outline: as §1

[8] = test system: barnyardgrass (Echinochloa crus-galli); test: Test A postemergence
Outline: as §1

[9] = test system: ragweed (common ragweed, Ambrosia elatior); test: Test A postemergence
Outline: as §1

[10] = test system: pigweed (Amaranthus retroflexus); test: Test A postemergence
Outline: as §1

[11] = test system: ducksalad (Heteranthera limosa); test: Test B flooded paddy test; conditions: Flood, 250 g ai/ha; 0 to 100 scale where 0 is no effect and 100 is complete control; 13 to 15 d
Outline: (§2)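 Rating scale 0–100 (visual, vs untreated controls) after a 13–15 d greenhouse period; application to the flood layer, 3 cm above soil and maintained; plants at 2-leaf stage when treated.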

[12] = test system: barnyardgrass (Echinochloa crus-galli); test: Test B flooded paddy test; conditions: Flood, 250 g ai/ha; 0 to 100 scale where 0 is no effect and 100 is complete control; 13 to 15 d
Outline: as §2

[13] = test system: rice (Oryra sativa); test: Test B flooded paddy test; conditions: Flood, 250 g ai/ha; 0 to 100 scale where 0 is no effect and 100 is complete control; 13 to 15 d
Outline: as §2

[14] = test system: sedge, umbrella (small-flower umbrella sedge, Cyperus difformis); test: Test B flooded paddy test; conditions: Flood, 250 g ai/ha; 0 to 100 scale where 0 is no effect and 100 is complete control; 13 to 15 d
Outline: as §2

[15] = test system: ryegrass, Italian (Italian ryegrass, Lolium multiflorum); test: Test A preemergence
Outline: as §1

[16] = test system: giant foxtail (Setaria faberii); test: Test A preemergence
Outline: as §1

[17] = test system: Kochia (Kochia scoparia); test: Test A preemergence
Outline: as §1

[18] = test system: barnyardgrass (Echinochloa crus-galli); test: Test A preemergence
Outline: as §1

[19] = test system: ragweed (common ragweed, Ambrosia elatior); test: Test A preemergence
Outline: as §1

[20] = test system: pigweed (Amaranthus retroflexus); test: Test A preemergence
[21] = 125 g ai/ha, postemergence, visual injury rating on 0 to 100 scale (0 no effect, 100 complete control), approx. 10 d
[22] = 500 g ai/ha, postemergence, 0 to 100 scale, 0 no effect, 100 complete control
[23] = 125 g ai/ha, preemergence, 0 to 100 scale (0 no effect, 100 complete control)
[24] = Preemergence, 500 g ai/ha, visual injury approx. 10 d
[25] = 125 g ai/ha, postemergence, visual rating after approx. 10 d, 0 to 100 scale (0 no effect, 100 complete control)
[26] = Postemergence, 500 g ai/ha, 0 to 100 scale where 0 is no effect and 100 is complete control
[27] = 125 g ai/ha, Preemergence, visual injury after approximately 10 d, 0 to 100 scale where 0 is no effect and 100 is complete control
[28] = 500 g ai/ha, preemergence, 0 to 100 scale, 0 = no effect, 100 = complete control

## CN1CC(c2ccc(F)cc2)C(C(=O)Nc2ccc(F)cc2F)C1=O (stereo not drawn) [Compound 440]
[1]; [21]
  Ryegrass, Italian plant response rating: 0
[1]; [22]
  Plant response rating, Ryegrass, Italian: 60
[2]; [21]
  Galium plant response rating: 40
[2]; [22]
  Plant response rating, Galium: 40
[3]; [21]
  Wheat plant response rating: 0
[3]; [22]
  Plant response rating, Wheat: 50
[4]; [21]
  Foxtail, Giant plant response rating: 90
[4]; [22]
  Plant response rating, Foxtail, Giant: 90
[5]; [21]
  Kochia plant response rating: 30
[5]; [22]
  Plant response rating, Kochia: 40
[6]; [21]
  Blackgrass plant response rating: 30
[6]; [22]
  Plant response rating, Blackgrass: 50
[7]; [21]
  Corn plant response rating: 0
[7]; [22]
  Plant response rating, Corn: 20
[8]; [21]
  Barnyardgrass plant response rating: 90
[8]; [22]
  Plant response rating, Barnyardgrass: 90
[9]; [21]
  Ragweed plant response rating: 0
[9]; [22]
  Plant response rating, Ragweed: 0
[10]; [21]
  Pigweed plant response rating: 0
[10]; [22]
  Plant response rating, Pigweed: 20
[11]
  Plant response rating, Ducksalad: 95
[12]
  Plant response rating, Barnyardgrass: 70
[13]
  Plant response rating, Rice: 0
[14]
  Plant response rating, Sedge, Umbrella: 0
[15]; [23]
  Plant response rating, Ryegrass, Italian: 0
[15]; [24]
  Ryegrass, Italian plant response rating (0 to 100 scale, 0 is no effect, 100 is complete control): 50
[16]; [23]
  Plant response rating, Foxtail, Giant: 90
[16]; [24]
  Foxtail, Giant plant response rating (0 to 100 scale, 0 is no effect, 100 is complete control): 100
[17]; [23]
  Plant response rating, Kochia: 60
[17]; [24]
  Kochia plant response rating (0 to 100 scale, 0 is no effect, 100 is complete control): 70
[18]; [23]
  Plant response rating, Barnyardgrass: 90
[18]; [24]
  Barnyardgrass plant response rating (0 to 100 scale, 0 is no effect, 100 is complete control): 100
[19]; [23]
  Plant response rating, Ragweed: 20
[19]; [24]
  Ragweed plant response rating (0 to 100 scale, 0 is no effect, 100 is complete control): 40
[20]; [23]
  Plant response rating, Pigweed: 20
[20]; [24]
  Pigweed plant response rating (0 to 100 scale, 0 is no effect, 100 is complete control): 80

## N#Cc1cccc(C2CNC(=O)C2C(=O)Nc2cccc(F)c2F)c1 (stereo not drawn) [Compound 621]
[1]; [25]
  Plant response rating, Ryegrass, Italian: 0
[1]; [26]
  Plant response rating, Ryegrass, Italian: 20
[2]; [25]
  Plant response rating, Galium: 30
[2]; [26]
  Plant response rating, Galium: 40
[3]; [25]
  Plant response rating, Wheat: 0
[3]; [26]
  Plant response rating, Wheat: 50
[4]; [25]
  Plant response rating, Foxtail, Giant: 70
[4]; [26]
  Plant response rating, Foxtail, Giant: 90
[5]; [25]
  Plant response rating, Kochia: 0
[5]; [26]
  Plant response rating, Kochia: 20
[6]; [25]
  Plant response rating, Blackgrass: 0
[6]; [26]
  Plant response rating, Blackgrass: 20
[7]; [25]
  Plant response rating, Corn: 0
[7]; [26]
  Plant response rating, Corn: 20
[8]; [25]
  Plant response rating, Barnyardgrass: 90
[8]; [26]
  Plant response rating, Barnyardgrass: 90
[9]; [25]
  Plant response rating, Ragweed: 0
[9]; [26]
  Plant response rating, Ragweed: 0
[10]; [25]
  Plant response rating, Pigweed: 0
[10]; [26]
  Plant response rating, Pigweed: 0
[11]
  Plant response rating, Ducksalad: 100
[12]
  Plant response rating, Barnyardgrass: 50
[13]
  Plant response rating, Rice: 20
[14]
  Plant response rating, Sedge, Umbrella: 0
[15]; [27]
  Plant response rating, Ryegrass, Italian: 0
[15]; [28]
  Plant response rating, Ryegrass, Italian: 40
[16]; [27]
  Plant response rating, Foxtail, Giant: 90
[16]; [28]
  Plant response rating, Foxtail, Giant: 90
[17]; [27]
  Plant response rating, Kochia: 0
[17]; [28]
  Plant response rating, Kochia: 40
[18]; [27]
  Plant response rating, Barnyardgrass: 90
[18]; [28]
  Plant response rating, Barnyardgrass: 90
[19]; [27]
  Plant response rating, Ragweed: 0
[19]; [28]
  Plant response rating, Ragweed: 90
[20]; [27]
  Plant response rating, Pigweed: 0
[20]; [28]
  Plant response rating, Pigweed: 20
